Values quoted from earlier work as cited in patent US11413271B2, “Oral eliglustat transmucosal delivery system” (ABON PHARMACEUTICALS LLC., priority 2018, dated 2022).

Bioavailability in EMs (estimated) (CYP2D6 extensive metabolizers): about 4.17%
Increase of systemic exposure (AUC0-12) at steady state compared to after the first dose (AUC0-∞) (multiple oral doses of 84 mg twice daily in EMs): up to 2 fold
Compound: CCCCCCCC(=O)N[C@H](CN1CCCC1)[C@H](O)c1ccc2c(c1)OCCO2 [eliglustat]
